The text below walks through data of patent US10611729B2, “Farnesoid X receptor antagonists” (City of Hope, priority 2014, dated 2020).

Where two headings read alike, the source gives them in different places.

Data set [1] deals with T1, FXR (Homo sapiens, UniProt Q96RI1).
T1 sequence (Q96RI1 262-486 limits assumed): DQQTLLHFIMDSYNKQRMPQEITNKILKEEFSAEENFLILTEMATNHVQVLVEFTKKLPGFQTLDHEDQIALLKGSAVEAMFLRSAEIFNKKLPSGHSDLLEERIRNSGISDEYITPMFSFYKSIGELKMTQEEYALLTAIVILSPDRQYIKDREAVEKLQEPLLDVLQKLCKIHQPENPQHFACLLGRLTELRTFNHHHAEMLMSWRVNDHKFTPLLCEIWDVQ
As to the kind of experiment: FXR TR-FRET binding assay (DY246 fluorescent probe). Particulars: for inhibition at 0.164 µM: at 164 nM; for IC50: mean ± SE; for inhibition at 0.493 µM: at 493 nM. On the procedure: The FXR TR-FRET binding assay was performed as previously described^23 with modifications. […] The plate was spun down after a brief shake and incubated at room temperature for 20 min. The TR-FRET emission signals at 520 nm and 490 nm for each well was then collected using a PHERAstar plate reader (BMG LABTECH, Cary, N.C.) with an excitation wavelength of 337 nm, 100-μs delay time, and 200-μs integration time. The 520 nm/490 nm ratio from each well was then calculated. […] The % inhibition of tested chemicals at given concentration was calculated based on negative and positive controls using equation 1.

Data set [2] has as its target T1, FXR. The data set is described as follows: GeneBLAzer FXR cell-based antagonistic assay (in presence of 400 nM GW4064). More on the design: the Gal4 DBD was fused to the LBD of FXR in this assay; host or cells: GeneBLAzer FXR-UAS-bla HEK 293T cells. Particulars: for inhibition at 40 µM / inhibition at 20 µM: read-out: GB FXR Cell Anta. % Inh.; for IC50: with 400 nM GW4064, read-out: GB FXR Cell Anta. IC50. As for the experimental part:
A GeneBLAzer FXR cell-based assay was used to investigate the cellular activities of the 1,3,4-trisubstituted-pyrazol-4-carboxamide analogs. The assay detects the levels of a […] reporter controlled by a promoter containing the binding site of the DNA binding domain (DBD) of the GAL4 transcription factor; the Gal4 DBD was fused to the LBD of FXR in this assay.^35
FXR transactivation assays were performed using GeneBLAzer FXR-UAS-bla HEK 293T cells (Invitrogen). Cells were maintained according to the manufacturer's instructions. […] Plates were then incubated in dark for 90 min at room temperature before measuring the fluorescent emissions at 460 nm and 535 nm (using excitation at 400 nm) with an Envision plate reader with bottom read capacity. After background signal subtraction for individual emission channels, emission signals at 460 and 535 nm from each well were used to determine the ratio of 460 nm/535 nm. […] The % activation was calculated using equation 2.
The % inhibition was calculated using equation 3.

For data set [3], the system named is GeneBLAzer FXR-UAS-bla HEK 293T cells. Particulars: human, 16 h.
Method: To examine if certain chemical antagonistic effect was caused by cytotoxicity, the same GeneBLAzer FXR cells were used to perform cytotoxicity assay. This assay was set up like the FXR agonistic assay, with the exception of signal reading. Instead of detecting the reporter activities, CellTiter-Glo® assay was used to detect cell viability. DMSO with cells or without cells group were served as negative (0% Inhibition) or positive (100% Inhibition), respectively.
Cytotoxicity assays were performed side-by-side with the FXR agonistic assay using GeneBLAzer FXR-UAS-bla HEK 293T cells with CellTiter-Glo® Luminescent Cell Viability Assay reagent (Promega). Briefly, cells were maintained in DMEM supplemented with 10% dialyzed FBS, 0.1 mM non-essential amino acids, 25 mM HEPES, 100 μg/ml of hygromycin B, 100 μg/ml of zeocin, 100 units/ml penicillin and 100 μg/ml streptomycin in regular tissue culture flasks. […] As a positive control, the wells in column 24 of each plate were filled with 30 μL assay medium along with 0.5% DMSO. The final DMSO concentration was 0.5% in each assay well. After a 16 h incubation in a cell culture incubator at 37° C., the cell plates were cooled at room temperature for 20 min and then CellTiter-Glo® reagent 20 μl/well was added followed by an incubation for 20 min in the dark to allow the development of optimal luminescence signal. The luminescence signal from each well in plates was collected with an Envision plate reader equipped with Ultra-sensitive Luminescence detector. The DMSO group and no cell group served as negative (0% activation) and positive (100% activation) controls, respectively. The % inhibition was calculated using equation 4 below.
Setting [4] is: read-out: FXR TR-FRET Binding % Inh.

In the case of `Cc1ccc(-c2nn(-c3ccccc3)cc2C(=O)Nc2ccc(C)c(S(=O)(=O)N3CCOCC3)c2)cc1` [Compound Z26476908, reference compound], in data set [1] (setting [4]), the inhibition at 0.164 µM came to 100 ± 5.2%. Also, the IC50 turned out to be 47 ± 5.1 nM in data set [1] and 2620 nM in data set [2]. In addition, the inhibition at 40 µM in data set [2] is 77.2 ± 2.2%. The “GB FXR Cell Cyto % Inh.” value in data set [3] (40 μM) came out at 17.9 ± 0.5%.

For the compound `CCCCn1cc(C(=O)Nc2ccc(C)c(S(=O)(=O)N3CCOCC3)c2)c(-c2ccc(C)cc2)n1` [Compound 4g, 1-Butyl-N-(4-methyl-3-(morpholinosulfonyl)phenyl)-3-(p-tolyl)-1H-pyrazole-4-carboxamide], in data set [1] (at 1.5 μM, read-out: FXR TR-FRET Binding % Inh.), the inhibition at 1.5 µM turned out to be 130.1 ± 0.7%. The same compound had an IC50 in data set [1] of 52.5 ± 4.1 nM. Also, in data set [2], the “FXR antagonistic activity, SAR statement in words” value (from here on “FXR antagonistic activity”) is recorded as “retention of the antagonistic activity”; the inhibition at 20 µM stood at 97.9 ± 8.1%; the IC50 worked out at 11510 ± 70 nM. The “GB FXR Cell Cyto % Inh.” value in data set [3] (4.4 μM) stood at 10.3 ± 0.3%.

In the case of `COc1cccc(Cn2cc(C(=O)N(C)c3ccc(C)c(S(=O)(=O)N4CCOCC4)c3)c(C(C)C)n2)c1` [Compound 8-2, 3-Isopropyl-1-(3-methoxybenzyl)-N-methyl-N-(4-methyl-3-(morpholinosulfonyl)phenyl)-1H-pyrazole-4-carboxamide], in data set [1] (setting [4]), the inhibition at 40 µM came out at 80.3 ± 5.2%. In data set [1], this compound showed an IC50 of 5330 ± 240 nM. In data set [2], the “activity against FXR at 1 μM” value was “weak activity” and the inhibition at 20 µM was 2.4 ± 0.1%. For the same compound, the “GB FXR Cell Cyto % Inh.” value in data set [3] (40 μM) is reported as 13.5 ± 0.4 (40 μM) %.

Turning to `Cc1ccc(-c2nn(-c3ccc(F)cc3)cc2C(=O)Nc2ccc(C)c(S(=O)(=O)N3CCOCC3)c2)cc1` [Compound 4a, 1-(4-fluorophenyl)-N-(4-methyl-3-(morpholinosulfonyl)phenyl)-3-p-tolyl-1H-pyrarazole-4-carboxamide], the inhibition at 0.493 µM in data set [1] (setting [4]) was 95 ± 1.2%. The same compound registered an IC50 in data set [1] of 24.3 ± 0.6 nM. In addition, in data set [2], the inhibition at 40 µM was 72 ± 2.2% and the IC50 was found to be 2490 ± 6 nM. In addition, the “GB FXR Cell Cyto % Inh.” value in data set [3] (40 μM) is 18.5 ± 1.0%.

For the compound `Cc1ccc(-c2nn(C(C)C)cc2C(=O)N(C)c2ccc(C)c(S(=O)(=O)N3CCOCC3)c2)cc1` [Compound 8-1, 1-Isopropyl-N-methyl-N-(4-methyl-3-(morpholinosulfonyl)phenyl)-3-(p-tolyl)-1H-pyrazole-4-carboxamide], in data set [1] (setting [4]), the inhibition at 40 µM stood at 133 ± 6.2%. The compound further yielded an IC50 in data set [1] of 489 ± 21.2 nM. Further, in data set [2], the “activity against FXR at 1 μM” value is reported as “weak activity”, the inhibition at 40 µM is 86.4 ± 2.8% and the 50% inhibitory concentration (IC50) is 16200 nM. For the same compound, the “GB FXR Cell Cyto % Inh.” value in data set [3] (40 μM) is given as 15.0 ± 0.7%.

Take `Cc1ccc(-c2nn(-c3nc4ccccc4s3)cc2C(=O)Nc2ccc(C)c(S(=O)(=O)N3CCOCC3)c2)cc1` [Compound 4e, 1-(Benzo[d]thiazol-2-yl)-N-(4-methyl-3-(morpholinosulfonyl)phenyl)-3-(p-tolyl)-1H-pyrazole-4-carboxamide]: the inhibition at 0.164 µM in data set [1] (setting [4]) turned out to be 102 ± 2.8%. This compound also registered an IC50 in data set [1] of 17.7 ± 0.4 nM. In data set [1] (text says FXR antagonistic activity / potency in hFXR, figures fit TR-FRET IC50), the “fold improvement of activity compared to Z26476908” value turned out to be 3 fold. For the same compound, in data set [2], the inhibition at 40 µM was 79.1 ± 2.4% and the concentration for half-maximal inhibition (IC50) worked out at 7910 ± 1160 nM. Besides, in data set [3] (13.3 μM), the “GB FXR Cell Cyto % Inh.” value was 11.5 ± 0.2 (13.3 μM) %.

Turning to `Cc1ccc(-c2nn(CCCCO)cc2C(=O)Nc2ccc(C)c(S(=O)(=O)N3CCOCC3)c2)cc1` [Compound 4l, 1-(4-Hydroxybutyl)-N-(4-methyl-3-(morpholinosulfonyl)phenyl)-3-(p-tolyl)-1H-pyrazole-4-carboxamide], in data set [1] (setting [4]), the inhibition at 0.493 µM worked out at 89.3 ± 0.1%. In addition, the half-maximal inhibitory concentration (IC50) in data set [1] amounted to 130 ± 16 nM. In addition, in data set [2], the inhibition at 40 µM was 97.6 ± 3.7% and the half-inhibitory concentration (IC50) stood at 2610 ± 290 nM. In addition, the “GB FXR Cell Cyto % Inh.” value in data set [3] (40 μM) stood at 5.9 ± 0.2%.

For the compound `COc1cccc(Cn2cc(C(=O)Nc3ccc(C)c(S(=O)(=O)N4CCOCC4)c3)c(-c3ccc(C(F)(F)F)cc3)n2)c1` [Compound 4q, 1-(3-Methoxybenzyl)-N-(4-methyl-3-(morpholinosulfonyl)phenyl)-3-(4-(trifluoromethyl)phenyl)-1H-pyrazole-4-carboxamide], in data set [1] (setting [4]), the inhibition at 0.164 µM amounted to 109 ± 3.6%. In addition, the 50% inhibitory concentration (IC50) in data set [1] turned out to be 30.9 ± 3.6 nM. Also, in data set [2], the inhibition at 40 µM was found to be 97.6 ± 0.9% and the 50% inhibitory concentration (IC50) was 592.7 ± 3 nM.

As to `COc1cccc(Cn2cc(C(=O)Nc3ccc(C)c(S(=O)(=O)N4CCOCC4)c3)c(-c3cccc(OC)c3)n2)c1` [Compound 4o, 1-(3-Methoxybenzyl)-3-(3-methoxyphenyl)-N-(4-methyl-3-(morpholinosulfonyl)phenyl)-1H-pyrazole-4-carboxamide], the inhibition at 0.493 µM in data set [1] (setting [4]) is 114 ± 3.3%. In data set [1], this compound registered an IC50 of 42.8 ± 0.5 nM. For the same compound, in data set [2], the “FXR antagonistic activity” value is reported as “slightly decreased antagonistic activity”; the inhibition at 40 µM amounted to 89.4 ± 4.2%; the 50% inhibitory concentration (IC50) amounted to 1240 ± 90 nM.

`Cc1ccc(-c2nn(Cc3ccc4ccccc4c3)cc2C(=O)Nc2ccc(C)c(S(=O)(=O)N3CCOCC3)c2)cc1` [Compound 4h, N-(4-Methyl-3-(morpholinosulfonyl)phenyl)-1-(naphthalen-2-ylmethyl)-3-(p-tolyl)-1H-pyrazole-4-carboxamide]: the inhibition at 0.164 µM in data set [1] (setting [4]) came out at 97.8 ± 1.2%. This compound registered a 50% inhibitory concentration (IC50) in data set [1] of 10.2 ± 1.6 nM. Further, in data set [2], the “FXR antagonistic activity” value was “enhanced antagonistic activity”; the inhibition at 40 µM is 84.4 ± 4.1%; the half-inhibitory concentration (IC50) was 844 ± 10.3 nM. The “GB FXR Cell Cyto % Inh.” value in data set [3] (4.4 μM) is recorded as 7.9 ± 0.3 (4.4 μM) %.

For `Cc1ccc(NC(=O)c2cn(C(C)C)nc2-c2ccc(C(F)(F)F)cc2)cc1S(=O)(=O)N1CCOCC1` [Compound 4p, 1-Isopropyl-N-(4-methyl-3-(morpholinosulfonyl)phenyl)-3-(4-(trifluoromethyl)phenyl)-1H-pyrazole-4-carboxamide], the inhibition at 4.4 µM in data set [1] (setting [4]) came to 133 ± 5.3%. The concentration for half-maximal inhibition (IC50) in data set [1] stood at 77.5 ± 3.7 nM; in data set [2] it was 1950 ± 280 nM. Further, the inhibition at 40 µM in data set [2] turned out to be 100 ± 3.7%. Also, in data set [3] (40 μM), the “GB FXR Cell Cyto % Inh.” value was 19.5 ± 1.1%.

`COc1cccc(Cn2cc(CNc3ccc(C)c(S(=O)(=O)N4CCOCC4)c3)c(C(C)C)n2)c1` [Compound 9-2, N-((3-Isopropyl-1-(3-methoxybenzyl)-1H-pyrazol-4-yl)methyl)-4-methyl-3-(morpholinosulfonyl)aniline]: the inhibition at 4.4 µM in data set [1] (setting [4]) turned out to be 72.5 ± 2.7%. In addition, the IC50 in data set [1] is 2310 ± 320 nM; in data set [2], 27800 ± 1540 nM. The inhibition at 40 µM in data set [2] stood at 64.8 ± 1.9%. The “GB FXR Cell Cyto % Inh.” value in data set [3] (40 μM) is given as 13.9 ± 0.6 (40 μM) %.

For `COc1cccc(-c2nn(C(C)C)cc2C(=O)Nc2ccc(C)c(S(=O)(=O)N3CCOCC3)c2)c1` [Compound 4n, 1-Isopropyl-3-(3-methoxyphenyl)-N-(4-methyl-3-(morpholinosulfonyl)phenyl)-1H-pyrazole-4-carboxamide], the inhibition at 13.3 µM in data set [1] (setting [4]) was 150 ± 6.9%. In data set [1], this compound gave an IC50 of 160 ± 22.6 nM. Further, in data set [2], the inhibition at 40 µM is 97.8 ± 1.5% and the IC50 was 3490 ± 640 nM. Moreover, in data set [3] (4.4 μM), the “GB FXR Cell Cyto % Inh.” value turned out to be 10.8 ± 0.2%.

With `Cc1ccc(-c2nn(C(C)C)cc2CNc2ccc(C)c(S(=O)(=O)N3CCOCC3)c2)cc1` [Compound 9-1, N-((1-Isopropyl-3-(p-tolyl)-1H-pyrazol-4-yl)methyl)-4-methyl-3-(morpholinosulfonyl)aniline], the inhibition at 13.3 µM in data set [1] (setting [4]) was 99.5 ± 2.6%. This compound also displayed an IC50 in data set [1] of 2040 ± 20 nM. Also, the inhibition at 40 µM in data set [2] worked out at 36.8 ± 0.3%. Also, the “GB FXR Cell Cyto % Inh.” value in data set [3] (40 μM) stood at 10.5 ± 0.3%.

Consider `Cc1ccc(-c2nn(-c3cccc(C(F)(F)F)c3)cc2C(=O)Nc2ccc(C)c(S(=O)(=O)N3CCOCC3)c2)cc1` [Compound 4d, N-(4-Methyl-3-(morpholinosulfonyl)phenyl)-3-(p-tolyl)-1-(3-(trifluoromethyl)phenyl)-1H-pyrazole-4-carboxamide], for which the inhibition at 0.164 µM in data set [1] (setting [4]) was 77.5 ± 4.3%. The same compound yielded an IC50 in data set [1] of 23.9 ± 2.1 nM. Besides, in data set [2], the inhibition at 40 µM stood at 54.8 ± 1.3% and the IC50 was determined as 22300 ± 1140 nM. Besides, the “GB FXR Cell Cyto % Inh.” value in data set [3] (40 μM) is given as 7.3 ± 0.2%.
